Test results reported in patent US6365605B1, “Substituted hydrochromenopyrroles” (Les Laboratoires Servier, priority 1997, dated 2002).

Target: T1, D3 receptors (expressed in CHO cells) (Homo sapiens, UniProt P35462)
T1 construct: expressed in transfected cells
Test: In vitro measurement of the affinity to D2 and D3 receptors, [125I]-iodosulpiride radioligand, membrane preparations
Format: binding
Conditions: difference of pKi, D3 vs D2 receptors expressed in CHO cells
Protocol: The affinity of the compounds of the invention to D2 and D3 receptors (expressed independently and in a stable manner in CHO cells) was determined with membrane preparations using [^125I]-iodosulpiride as radioligand (Sokoloff et al., quoted reference). The results are expressed as pKi.

T1 sequence (P35462 whole entry): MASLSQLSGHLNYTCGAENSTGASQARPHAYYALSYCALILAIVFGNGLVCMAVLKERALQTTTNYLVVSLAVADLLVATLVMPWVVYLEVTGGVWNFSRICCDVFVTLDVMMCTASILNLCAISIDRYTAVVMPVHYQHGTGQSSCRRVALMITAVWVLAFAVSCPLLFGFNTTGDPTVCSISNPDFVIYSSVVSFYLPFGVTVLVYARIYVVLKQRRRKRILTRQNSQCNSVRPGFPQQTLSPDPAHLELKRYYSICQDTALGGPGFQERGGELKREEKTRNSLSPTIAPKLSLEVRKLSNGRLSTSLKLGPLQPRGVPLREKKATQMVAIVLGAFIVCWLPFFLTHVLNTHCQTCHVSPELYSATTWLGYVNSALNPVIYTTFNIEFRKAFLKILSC

CC(=O)Nc1ccc(CCN2CC3COc4ccc(C#N)cc4C3C2)cc1.Cl (stereo not shown) [Example 4, (3aα,9bβ)-2-[2-(4-Acetylaminophenyl)ethyl]-8-cyano-1,2,3,3a,4,9b-hexahydrochromeno[3,4-c]pyrrole hydrochloride]
selectivity for D3 receptors compared with D2 receptors: > 1.5 log
